Source: PubChem BioAssay (NCI)
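Step 1: Grow cells in 96-well plates. Step 2: Expose to compound for 48 hours at 5 concentrations. Step 3: Interpolate endpoints linearly; if unreached, use highest concentration. GI50 marks 50% less growth. At the TGI there is no net growth.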

Experiments:
Assay in all cases: NCI anticancer screen, dose series, 48 h
HCC-2998 colon = test system: HCC-2998 colon
CCRF-CEM leukemia = test system: CCRF-CEM leukemia
UO-31 renal = test system: UO-31 renal
HS 578T breast = test system: HS 578T breast
NCI-H522 lung = test system: NCI-H522 lung
OVCAR-3 ovarian = test system: OVCAR-3 ovarian
PC-3 prostate = test system: PC-3 prostate
A549 NSCLC = test system: A549 NSCLC
HCT-15 colon = test system: HCT-15 colon
SF-539 CNS = test system: SF-539 CNS

## C=C1C(=O)O[C@H]2[C@H]1CC/C(COC(=O)NCCc1ccc(OC)cc1)=C\CC[C@@]1(C)O[C@@H]21
HCC-2998 colon
  GI50: 2.48 µM
  TGI: 5.63 µM
CCRF-CEM leukemia
  GI50: 1.98 µM
  TGI: 7.74 µM
UO-31 renal
  GI50: 1.76 µM
  TGI: 3.26 µM
HS 578T breast
  GI50: 13.8 µM
  TGI: 62.9 µM
NCI-H522 lung
  GI50: 1.82 µM
  TGI: 3.93 µM
OVCAR-3 ovarian
  GI50: 2.19 µM
  TGI: 5.25 µM
PC-3 prostate
  GI50: 8.08 µM
  TGI: 21.7 µM
A549 NSCLC
  GI50: 13.2 µM
  TGI: 28.4 µM
HCT-15 colon
  GI50: 1.74 µM
  TGI: 4.01 µM
SF-539 CNS
  GI50: 1.79 µM
  TGI: 4.21 µM

## CCCCCCN1C(=O)/C(=c2\sc3n(c2=O)C2C(NN=3)N(CC)C(=O)N2CC)c2ccccc21 (centres undefined)
HCC-2998 colon
  GI50: 5.83 µM
  TGI: > 50 µM
CCRF-CEM leukemia
  GI50: 2.5 µM
  TGI: > 50 µM
UO-31 renal
  GI50: 1.43 µM
  TGI: > 50 µM
HS 578T breast
  GI50: 1.12 µM
  TGI: 3.28 µM
NCI-H522 lung
  GI50: 1.45 µM
  TGI: > 50 µM
OVCAR-3 ovarian
  GI50: 0.966 µM
  TGI: 2.06 µM
PC-3 prostate
  GI50: 2.48 µM
  TGI: > 50 µM
A549 NSCLC
  GI50: 1.47 µM
  TGI: > 50 µM
HCT-15 colon
  GI50: 1.62 µM
  TGI: > 50 µM
SF-539 CNS
  GI50: 0.831 µM
  TGI: 1.59 µM

## O=C(CNC(=O)c1cccc2ccccc12)Nc1ccccc1Oc1cccc(O)c1
HCC-2998 colon
  GI50: > 25 µM
  TGI: > 25 µM
CCRF-CEM leukemia
  GI50: 4.17 µM
  TGI: > 25 µM
UO-31 renal
  GI50: 16.5 µM
  TGI: > 25 µM
HS 578T breast
  GI50: 5.79 µM
  TGI: > 25 µM
NCI-H522 lung
  GI50: 1.62 µM
  TGI: > 25 µM
OVCAR-3 ovarian
  GI50: 1.5 µM
  TGI: > 25 µM
PC-3 prostate
  GI50: 7.13 µM
  TGI: > 25 µM
A549 NSCLC
  GI50: 9.64 µM
  TGI: > 25 µM
HCT-15 colon
  GI50: 3.14 µM
  TGI: > 25 µM
SF-539 CNS
  GI50: 4.06 µM
  TGI: 13.8 µM

## CCN(CC)c1ccc(/C=N/NC(=O)c2ccc(Nc3ccnc(C(F)(F)F)c3)cc2)c(O)c1
HCC-2998 colon
  GI50: 0.25 µM
  TGI: 1.4 µM
CCRF-CEM leukemia
  GI50: 0.0532 µM
  TGI: 0.771 µM
UO-31 renal
  GI50: 0.117 µM
  TGI: 1.91 µM
HS 578T breast
  GI50: 0.321 µM
  TGI: 3.6 µM
NCI-H522 lung
  GI50: 0.293 µM
  TGI: 2.07 µM
OVCAR-3 ovarian
  GI50: 0.109 µM
  TGI: > 70.1 µM
PC-3 prostate
  GI50: 0.434 µM
  TGI: > 100 µM
A549 NSCLC
  GI50: 0.439 µM
  TGI: > 100 µM
HCT-15 colon
  GI50: 0.0666 µM
  TGI: 2.55 µM
SF-539 CNS
  GI50: 0.234 µM
  TGI: 0.87 µM

## Cc1c(C(=O)/C=C/c2ccc(O)cc2)nnn1-c1ccnc2c(C(F)(F)F)cccc12
HCC-2998 colon
  GI50: 20.9 µM
  TGI: > 100 µM
CCRF-CEM leukemia
  GI50: 4.54 µM
  TGI: > 100 µM
UO-31 renal
  GI50: 41.9 µM
  TGI: > 100 µM
HS 578T breast
  GI50: 60.7 µM
  TGI: > 100 µM
NCI-H522 lung
  GI50: 6.2 µM
  TGI: > 100 µM
OVCAR-3 ovarian
  GI50: 19.5 µM
  TGI: > 100 µM
PC-3 prostate
  GI50: 7.88 µM
  TGI: > 100 µM
A549 NSCLC
  GI50: 8.55 µM
  TGI: > 100 µM
HCT-15 colon
  GI50: 15.1 µM
  TGI: > 100 µM
SF-539 CNS
  GI50: 72.5 µM
  TGI: > 100 µM

## Clc1nc(Cl)c2ncn(C/C=C\Cn3cnc4c(Cl)nc(Cl)nc43)c2n1
HCC-2998 colon
  GI50: 1.67 µM
  TGI: 3.45 µM
CCRF-CEM leukemia
  GI50: 0.739 µM
  TGI: 2.36 µM
UO-31 renal
  GI50: 3.38 µM
  TGI: 10.3 µM
HS 578T breast
  GI50: 3.01 µM
  TGI: 6.12 µM
NCI-H522 lung
  GI50: 1.76 µM
  TGI: 4.02 µM
OVCAR-3 ovarian
  GI50: 1.37 µM
  TGI: 2.69 µM
PC-3 prostate
  GI50: 2.05 µM
  TGI: 4.54 µM
A549 NSCLC
  GI50: 3.67 µM
  TGI: 39.4 µM
HCT-15 colon
  GI50: 1.64 µM
  TGI: 3.36 µM
SF-539 CNS
  GI50: 2.49 µM
  TGI: 5.97 µM

## Nc1nc(-n2cccn2)nc(-n2cccn2)c1Br
HCC-2998 colon
  GI50: > 100 µM
  TGI: > 100 µM
CCRF-CEM leukemia
  GI50: > 100 µM
  TGI: > 100 µM
UO-31 renal
  GI50: > 100 µM
  TGI: > 100 µM
HS 578T breast
  GI50: > 100 µM
  TGI: > 100 µM
NCI-H522 lung
  GI50: > 100 µM
  TGI: > 100 µM
OVCAR-3 ovarian
  GI50: > 100 µM
  TGI: > 100 µM
PC-3 prostate
  GI50: > 100 µM
  TGI: > 100 µM
A549 NSCLC
  GI50: > 100 µM
  TGI: > 100 µM
HCT-15 colon
  GI50: > 100 µM
  TGI: > 100 µM
SF-539 CNS
  GI50: > 100 µM
  TGI: > 100 µM

## O=C(O)CC(Cc1ccc2c(c1)OCO2)C(=O)O (centres undefined)
HCC-2998 colon
  TGI: > 100 µM
CCRF-CEM leukemia
  TGI: > 100 µM
UO-31 renal
  TGI: > 100 µM
HS 578T breast
  TGI: > 100 µM
NCI-H522 lung
  TGI: > 100 µM
OVCAR-3 ovarian
  TGI: > 100 µM
PC-3 prostate
  TGI: > 100 µM
A549 NSCLC
  TGI: > 100 µM
HCT-15 colon
  TGI: > 100 µM
SF-539 CNS
  TGI: > 100 µM

## CCN(CC)CCC(=O)Nc1cccc2c1C(=O)c1c(c(O)c3ccccc3c1O)C2=O
HCC-2998 colon
  GI50: > 100 µM
  TGI: > 100 µM
CCRF-CEM leukemia
  GI50: 1.34 µM
  TGI: 4.71 µM
UO-31 renal
  GI50: 1.12 µM
  TGI: 3.31 µM
HS 578T breast
  GI50: 16.2 µM
  TGI: > 100 µM
NCI-H522 lung
  GI50: 80.3 µM
  TGI: > 100 µM
OVCAR-3 ovarian
  GI50: 15 µM
  TGI: 52.2 µM
PC-3 prostate
  GI50: 4.6 µM
  TGI: 21.7 µM
A549 NSCLC
  GI50: 17.7 µM
  TGI: 57 µM
HCT-15 colon
  GI50: 0.934 µM
  TGI: > 100 µM
SF-539 CNS
  GI50: 3.38 µM
  TGI: 13.8 µM

## CC(=O)OCC(=O)[C@@]1(O)[C@H](C)C[C@H]2[C@@H]3C=C(C)C4=Cc5c(cnn5-c5ccc(F)cc5)C[C@]4(C)[C@H]3[C@@H](O)C[C@@]21C
HCC-2998 colon
  GI50: 1.88 µM
  TGI: 3.77 µM
CCRF-CEM leukemia
  GI50: < 0.0158 µM
UO-31 renal
  GI50: 4.31 µM
  TGI: 15.6 µM
HS 578T breast
  GI50: 1.33 µM
  TGI: 4.05 µM
NCI-H522 lung
  GI50: 1.84 µM
  TGI: 3.82 µM
OVCAR-3 ovarian
  GI50: 1.78 µM
  TGI: 3.84 µM
PC-3 prostate
  GI50: 1.8 µM
  TGI: 5.06 µM
A549 NSCLC
  GI50: 1.45 µM
  TGI: 9.96 µM
HCT-15 colon
  GI50: 1.45 µM
  TGI: 3.63 µM
SF-539 CNS
  GI50: 0.473 µM
  TGI: 2.35 µM

## COc1ccc(/C=C/C(=O)c2ccc(Nc3ncnc4ccccc34)cc2)cc1OC
HCC-2998 colon
  GI50: 3.22 µM
  TGI: 11.8 µM
CCRF-CEM leukemia
  GI50: 2.55 µM
  TGI: 7.01 µM
UO-31 renal
  GI50: 4.57 µM
  TGI: 68.3 µM
HS 578T breast
  GI50: 15.3 µM
  TGI: > 100 µM
NCI-H522 lung
  GI50: 7.45 µM
  TGI: 33.5 µM
OVCAR-3 ovarian
  GI50: 5.1 µM
  TGI: > 100 µM
PC-3 prostate
  GI50: 4.22 µM
  TGI: > 100 µM
A549 NSCLC
  GI50: 3.66 µM
  TGI: > 100 µM
HCT-15 colon
  GI50: 8.63 µM
  TGI: > 100 µM
SF-539 CNS
  GI50: 7.73 µM
  TGI: 48.8 µM

## COC(=O)Nc1ccc2ccc3c(NC(=O)OC)ccc4ccc1c2c43 (tested in a mixture with another compound)
HCC-2998 colon
  GI50: 9.99 µM
  TGI: 37.9 µM
CCRF-CEM leukemia
  GI50: 6.04 µM
  TGI: > 50 µM
UO-31 renal
  GI50: 5.21 µM
  TGI: 18.3 µM
HS 578T breast
  GI50: 9.01 µM
  TGI: 40.4 µM
NCI-H522 lung
  GI50: 11 µM
  TGI: > 50 µM
OVCAR-3 ovarian
  GI50: 10.6 µM
  TGI: 45.2 µM
PC-3 prostate
  GI50: 6.89 µM
  TGI: 26 µM
A549 NSCLC
  GI50: 7.78 µM
  TGI: > 50 µM
HCT-15 colon
  GI50: 2.63 µM
  TGI: > 50 µM
SF-539 CNS
  GI50: 6.76 µM
  TGI: 17.8 µM

## O=[N+]([O-])c1cccc(-c2nc3sccn3c2-c2ccnc(NCCCNS(=O)(=O)c3ccc(F)cc3)n2)c1
HCC-2998 colon
  GI50: 7.29 µM
  TGI: > 100 µM
CCRF-CEM leukemia
  GI50: 1.2 µM
  TGI: 7.81 µM
UO-31 renal
  GI50: 1.4 µM
  TGI: 8.39 µM
HS 578T breast
  GI50: 3.25 µM
  TGI: > 100 µM
NCI-H522 lung
  GI50: 1.59 µM
  TGI: 6.02 µM
OVCAR-3 ovarian
  GI50: 2.31 µM
  TGI: 8.49 µM
PC-3 prostate
  GI50: 1.14 µM
  TGI: 4.82 µM
A549 NSCLC
  GI50: 2.73 µM
  TGI: > 100 µM
HCT-15 colon
  GI50: 2.08 µM
  TGI: 9.79 µM
SF-539 CNS
  GI50: 3.61 µM
  TGI: > 100 µM
